Patent US12479877B2, “Methods for purifying steviol glycosides and uses of the same” (PureCircle Sdn. Bhd., priority 2010, dated 2025)

What was measured:
panelists = assay: Sensory properties in acidified water (pH 3.0) at 500 mg/L, 20 panelists; format: in vivo, human; details: 500 ppm, acidified water pH 3.0, 20 panelists
Experimental: The sensory properties of Reb X were evaluated in acidified water (pH 3.0 by phosphoric acid) at 500 mg/L concentration by 20 panelists.

one experienced panelist = assay: Taste evaluation of Reb X against Reb A and Reb D, multi-sip and swallow taste method; format: in vivo, human
Experimental: The taste properties of a sample of Reb X were studied against Rebaudioside A (Reb A) and Rebaudioside D (Rb D) samples. Rb A was obtained from Cargill (lot #1040) and Reb-D was obtained from PureCircle (lot #11/3/08).
The samples were prepared at 500 ppm for sweetness evaluation by adding moisture compensated mass into a 100 mL sample of carbon-treated water and citric buffer solutions.
(§1) Citric buffer was prepared by mixing 1.171 g/L citric acid, 0.275 g/L sodium citrate and 0.185 g/L sodium benzoate with carbon-treated water, with a final pH of 3.22. The mixtures were moderately stirred at room temperature. The Reb X sample was then evaluated against the two control Reb A and Reb D samples in water and citric buffer at room temperature (RT) and at 4° C. in an ice bath by one experienced panelist for any tasting quality determinations using the controlled, multi-sip and swallow taste method shown below:
1. Take first sip (˜1.8 mL) of control and swallow. Wait for 15-25 sec, then take second sip of control and wait for 15-25 sec.
2. Take first sip of the experimental sample, wait for 15-25 sec, then take second sip. Compare to second sip of control.
3. Repeat steps #1 and #2 for the third and fourth sips of the control and experimental samples to confirm the initial finding.
The taste evaluation results of the Reb X samples against the control Reb A and Reb D samples at 500 ppm in citric buffer (CB) at 4° C. and RT are described in Table 4.

[1] = Solubility studies in carbon-treated water and citrate buffer; format: physicochemical
Experimental: as §1
The samples used to evaluate the taste properties in Example 2 were also used for solubility studies.

one experienced taster = assay: Isosweetness determination of Reb X in citric buffer against sucrose controls; format: in vivo, human; details: for Estimated % Sweetness Equivalence in Citric Buffer at 4° C.: citric buffer pH 3.1, 4° C.; for Estimated % Sweetness Equivalence in Citric Buffer at RT: citric buffer pH 3.1, RT
Experimental: (§2) The isosweetness levels of Reb X in a citric buffer system at room temperature and 4° C. were evaluated. A 600 ppm stock solution of Reb X was prepared by adding a mass of 0.15 g into a 250 mL sample of citric buffer (CB) solution. The mixture was moderately stirred at warmer temperature (up to ca. 52° C.) on a heated stirrer for about 15-20 minutes and then cooled. The citric buffer was prepared by adding 1.6 g citric acid, 0.6 g potassium citrate and 0.253 g sodium benzoate in 1 L of carbon-treated water. The pH of the mixture was 3.1. Seven diluted Reb X solutions at 12.5, 25, 50, 100, 200, 300, 400 and 500 ppm were prepared by adding a 2.08, 4.17, 8.33, 16.67, 25.00, 33.33 and 41.67 mL Reb X stock solution, respectively, into each 50 mL solution of CB. The controls of 0.75%, 2%, 4%, 6%, 8%, 10% and 15% sucrose equivalence (SE) were also prepared by adding sugar (w/v) into the CB. The mixtures were moderately stirred and then ready for the isosweetness determination test. The Reb X samples were then evaluated against the control sugar samples in citric buffer at room temperature (RT) and 4° C. (in an ice bath) by one experienced taster for an isosweetness determination using the controlled, multi-sip and swallow taste method.

[2] = Solubility of 600 ppm Reb X stock solution in citric buffer; format: physicochemical; details: 0.06% (w/v) in citric buffer at up to 52° C. for ca. 15-20 minutes
Experimental: as §2, with “Seven diluted Reb X solutions at 12.5, 25, 50, 100, 200, 300, 400 and 500 ppm were prepared by adding a 2.08, 4.17, 8.33, 16.67, 25.00, 33.33 and 41.67 mL Reb X stock solution, respectively, into each 50 mL solution of CB.” left out
Despite the stronger mouthfeel or texture effect (syrupy, thicker) at ca. 15% sucrose, it was difficult to determine the isosweetness levels for at least 400 ppm of Reb X due to its thinner mouthfeel but broader and more impact sweetness temporal profile as well as its significant sweet lingering.

For `C=C1C[C@@]23CCC4[C@](C)(C(=O)OC5OC(CO)C(O)C(OC6OC(CO)C(O)C(O)C6O)C5OC5OC(CO)C(O)C(O)C5O)CCC[C@@]4(C)[C@@H]2CCC1(OC1OC(CO)C(O)C(OC2OC(CO)C(O)C(O)C2O)C1OC1OC(CO)C(O)C(O)C1O)C3` (stereo partly drawn) [Reb X, (13-[2-O-β-D-glucopyranosyl-3-O-β-D-glucopyranosyl-β-D-glucopyranosyl)oxy] ent kaur-16-en-19-oic acid-[2-O-β-D-glucopyranosyl-3-O-β-D-glycopyranosyl) ester], the “Astringent taste: Number of panelists detected the attribute” value (panelists) was 0, the “Bitter taste: Number of panelists detected the attribute” value (panelists) was 0 and the “Licorice taste: Number of panelists detected the attribute” value (panelists) was 0. The “Overall evaluation: Satisfactory (number of panelists of 20)” value (panelists) was “(20 of 20)”, the “Quality of sweet taste: Clean (number of panelists of 20)” value (panelists) was “Clean (20” and the “Sweet Aftertaste: Number of panelists detected the attribute” value (panelists) was 0. The “Taste profile compared to already known steviol glycosides” value (panelists) was “superior taste profile”, the “Taste quality at room temperature versus 4° C.” value (one experienced panelist; 500 ppm in citrate buffer) was “similar” and the “Taste quality compared with Reb A and Reb D” value (one experienced panelist; 500 ppm in citrate buffer) was “much better than Reb A or Reb D”. The “Sweet temporal profile and sweetness linger” value (one experienced panelist; 500 ppm in citrate buffer, compared with Reb A) was “fatty-like or broader sweet temporal profile and less sweetness linger than that of Reb A”, the “Taste Properties” value (one experienced panelist; 500 ppm in citric buffer (pH 3.22), room temperature) was “Clean sweet taste. Broad and full sweetness profile. Moderate” and the “Astringency, sweetness intense (depth) and bitterness notes” value (one experienced panelist; 500 ppm, citrate buffer system, compared with Reb A) was “did not have the astringency or sweetness intense (depth) and bitterness notes compared to that of the Reb A”. The “Estimated time to solubilize” value ([1]; 0.01% in carbon-treated water) was 15 min, the “Estimated time to solubilize” value ([1]; 0.01% in citrate buffer) was 25 min and the “Estimated time to solubilize” value ([1]; 0.02% in carbon-treated water) was 25 min. For the same compound, the “Estimated time to solubilize” value ([1]; 0.02% in citrate buffer) was 25 min, the “Estimated time to solubilize” value ([1]; 0.04% in carbon-treated water) was 33 min and the “Estimated time to solubilize” value ([1]; 0.04% in citrate buffer) was 35 min. For the same compound, the “Estimated time to solubilize” value ([1]; 0.05% in carbon-treated water) was 39 min, the “Estimated time to solubilize” value ([1]; 0.05% in citrate buffer) was 42 min and the “Estimated time to solubilize” value ([1]; 0.075% in carbon-treated water) was 55 min. The “Estimated time to solubilize” value ([1]; 0.075% in citrate buffer) was 55 min, the “Estimated time to solubilize” value ([1]; 0.10% in carbon-treated water) was 106 min and the “Estimated time to solubilize” value ([1]; 0.10% in citrate buffer) was 106 min. The “Estimated time to solubilize” value ([1]; 0.15% in carbon-treated water) was “Insoluble after 20 hours”, the “Estimated time to solubilize” value ([1]; 0.15% in citrate buffer) was “Insoluble after 20 hours” and the “Initial solubility test (comparative)” value ([1]; 500 ppm concentrations in citrate buffer) was “significantly greater solubility than that of Reb D and significantly less solubility than Reb A”. The “Estimated % Sweetness Equivalence in Citric Buffer at 4° C.” value (one experienced taster; Reb X 12.5 ppm) was 0.75%, the “Estimated % Sweetness Equivalence in Citric Buffer at RT” value (one experienced taster; Reb X 12.5 ppm) was 0.5% and the “Estimated % Sweetness Equivalence in Citric Buffer at 4° C.” value (one experienced taster; Reb X 25 ppm) was 1.5%. For the same compound, the “Estimated % Sweetness Equivalence in Citric Buffer at RT” value (one experienced taster; Reb X 25 ppm) was 1.0-1.5%, the “Estimated % Sweetness Equivalence in Citric Buffer at 4° C.” value (one experienced taster; Reb X 50 ppm) was 3.0-3.5% and the “Estimated % Sweetness Equivalence in Citric Buffer at RT” value (one experienced taster; Reb X 50 ppm) was 3.25-3.75%. The “Estimated % Sweetness Equivalence in Citric Buffer at 4° C.” value (one experienced taster; Reb X 100 ppm) was 5.5%, the “Estimated % Sweetness Equivalence in Citric Buffer at RT” value (one experienced taster; Reb X 100 ppm) was 5.0% and the “Estimated % Sweetness Equivalence in Citric Buffer at 4° C.” value (one experienced taster; Reb X 200 ppm) was 8.0%. The “Estimated % Sweetness Equivalence in Citric Buffer at RT” value (one experienced taster; Reb X 200 ppm) was 8.0%, the “Estimated % Sweetness Equivalence in Citric Buffer at 4° C.” value (one experienced taster; Reb X 300 ppm) was 11.0-12.0% and the “Estimated % Sweetness Equivalence in Citric Buffer at RT” value (one experienced taster; Reb X 300 ppm) was 12.0%. The “Estimated % Sweetness Equivalence in Citric Buffer at 4° C.” value (one experienced taster; Reb X 400 ppm) was 14.0-14.5%, the “Estimated % Sweetness Equivalence in Citric Buffer at RT” value (one experienced taster; Reb X 400 ppm) was 14.0-14.5% and the “Estimated % Sweetness Equivalence in Citric Buffer at 4° C.” value (one experienced taster; Reb X 500 ppm) was 15.5-16.0%. The “Estimated % Sweetness Equivalence in Citric Buffer at RT” value (one experienced taster; Reb X 500 ppm) was 15.5-16.0%, the “Estimated % Sweetness Equivalence in Citric Buffer at 4° C.” value (one experienced taster; Reb X 600 ppm) was 16.5-17.0% and the “Estimated % Sweetness Equivalence in Citric Buffer at RT” value (one experienced taster; Reb X 600 ppm) was 16.5-17.0%. For the same compound, the “Sweetness intensity difference between RT and 4° C.” value (one experienced taster; Reb X concentration range, direct comparison with control sucrose at similar temperatures) was “no significant sweetness intensity difference”, the Sweetness tasting quality (one experienced taster; all concentrations (12.5-600 ppm) in citric buffer) was “pleasant sweetness tasting quality with a slight delay of sweetness onset and no bitterness” and the Off-flavors (one experienced taster; any Reb X concentrations in CB at 4° C., except at least ca. 300 ppm) was “No off-flavors”. The Sweetness lingering (one experienced taster; at least ca. 300 ppm Reb X in CB at 4° C.) was “longer sweetness lingering” and the Solubility and appearance [2] was “very soluble and clear (colorless)”.
